For the experiment, the target named is T1, glutathione S-transferase (GST)-linked full-length human Syk protein (Homo sapiens, UniProt P43405).
T1 construct: glutathione S-transferase (GST)-linked full-length human Syk protein; purchased Carna Biosciences; host or cells: Baculovirus expression system
As to the kind of experiment: Syk enzyme assay. It is filed as biochemical. The conditions noted are these: 0.83 nM Syk, time-resolved fluorescence; read-out: IC50 of Syk-inhibitory activity. The procedure: A glutathione S-transferase (GST)-linked full-length human Syk protein (Carna Biosciences), which had been generated using a Baculovirus expression system, was used in the Syk enzyme assay.
7.5 μl of a reaction solution (0.83 nM Syk, 20 mM HEPES, 10 mM MgCl2, 50 mM NaCl, 2 mM DTT, 0.05% BSA, pH 7.0) containing a Syk protein and a predetermined concentration of a test compound was shaken for 2 minutes, and it was then left at rest at room temperature for 13 minutes. Thereafter, 0.5 μM substrate peptide (Biotin-[…]-NH2) and 5 μL of a solution containing 67.5 μM ATP were added to the reaction solution, and the obtained mixture was then shaken for 2 minutes. The reaction solution was further left at rest at room temperature for 40 minutes, so as to carry out an enzyme reaction.
Thereafter, 50 μL of a reaction termination solution [60 nM APC-SA, 0.45 μg/mL Eu-PT66, 30 mM HEPES (pH 7.0), 150 mM KF, 30 mM EDTA, 0.15% BSA, 0.075% Tween20] containing Allophycocyanin-Streptavidin (APC-SA; PerkinElmer) and an Eu-W1024-labeled anti-phosphotyrosine PT66 antibody (Eu-PT66; PerkinElmer) was added to the reaction solution to terminate the enzyme reaction. At the same time, the reaction solution was left at rest at room temperature for 1 hour, so as to carry out an antigen-antibody reaction. Thereafter, using EnVision (PerkinElmer), the level of time-resolved fluorescence was measured at 615 nm and 665 nm, so that the phosphorylation of the substrate peptide was measured.
The following are used in Table 5 to denote standards for evaluating IC50 of Syk-inhibitory activity. • A: Up to 10 nM • B: 10 to 50 nM • C: 50 to 100 nM
As to `CNc1n[nH]c2ccc(Nc3nc(N[C@@H]4CCCC[C@@H]4N)c(F)cc3C(N)=O)cc12` [Example 2-488, 6-(((1R,2S)-2-aminocyclohexyl)amino)-5-fluoro-2-((3-(methylamino)-1H-indazol-5-yl)amino)nicotinamide], the IC50 is below 0.01 µM.
Next, `COCCN(C)c1nn(C)c2ccc(Nc3nc(N[C@@H]4CCOC[C@@H]4N)c(F)cc3C(N)=O)cc12` [Example 2-457, 6-(((3R,4R)-3-aminotetrahydro-2H-pyran-4-yl)amino)-5-fluoro-2-((3-((2-methoxyethyl)(methyl)amino)-1-methyl-1H-indazol-5-yl)amino)nicotinamide]: below 0.01 µM.
Next, `CCn1ncc2c(Nc3nc(N[C@H](C(C)C)[C@H](C)N)c(F)cc3C(N)=O)cccc21` [Example 2-97, 6-(((2S,3R)-2-amino-4-methylpentan-3-yl)amino)-2-((1-ethyl-1H-indazol-4-yl)amino)-5-fluoronicotinamide]: 0.05 to 0.1 µM.
With `C[C@H](N)[C@H](Nc1nc(Nc2ccc(F)c(F)c2)c(C(N)=O)cc1F)C1CC1` [Example 2-59, 6-(((1R,2S)-2-amino-1-cyclopropylpropyl)amino)-2-((3,4-difluorophenyl)amino)-5-fluoronicotinamide] the figure was 0.01 to 0.05 µM; with `COCCN(C)c1nn(C)c2ccc(Nc3nc(N[C@H](C4CC4)[C@H](C)N)c(F)cc3C(N)=O)cc12` [Example 2-460, 6-(((1R,2S)-2-amino-1-cyclopropylpropyl)amino)-5-fluoro-2-((3-((2-methoxyethyl)(methyl)amino)-1-methyl-1H-indazol-5-yl)amino)nicotinamide], below 0.01 µM.
Take `C[C@H](N)[C@@H](Cc1ccccc1)Nc1nc(Nc2ccc3c(c2)c(N(C)C)nn3C)c(C(N)=O)cc1F` [Example 2-424, 6-(((2R,3S)-3-amino-1-phenylbutan-2-yl)amino)-2-((3-(dimethylamino)-1-methyl-1H-indazol-5-yl)amino)-5-fluoronicotinamide]: the IC50 was below 0.01 µM.
Next, `COCCn1ncc2c(Nc3nc(N[C@H](CC(C)C)[C@H](C)N)c(F)cc3C(N)=O)cccc21` [Example 2-308, 6-(((2S,3R)-2-amino-5-methylhexan-3-yl)amino)-5-fluoro-2-((1-(2-methoxyethyl)-1H-indazol-4-yl)amino)nicotinamide]: below 0.01 µM; `C[C@H](N)[C@H](Nc1nc(Nc2cc(N3CCOCC3)ncc2F)c(C(N)=O)cc1F)C1CC1` [Example 2-234, 6-(((1R,2S)-2-amino-1-cyclopropylpropyl)amino)-5-fluoro-2-((5-fluoro-2-morpholinopyridin-4-yl)amino)nicotinamide]: 0.05 to 0.1 µM; `Cc1ncc(Nc2nc(N[C@H](c3cc(F)cc(F)c3)[C@H](C)N)c(F)cc2C(N)=O)cc1-n1nccn1` [Example 2-548, 6-(((1R,2S)-2-amino-1-(3,5-difluorophenyl)propyl)amino)-5-fluoro-2-((6-methyl-5-(2H-1,2,3-triazol-2-yl)pyridin-3-yl)amino)nicotinamide]: 0.01 to 0.05 µM.
For `CCCC[C@@H](Nc1nc(Nc2cccc3c2cnn3CC)c(C(N)=O)cc1F)[C@H](C)N` [Example 2-99, 6-(((2S,3R)-2-aminoheptan-3-yl)amino)-2-((1-ethyl-1H-indazol-4-yl)amino)-5-fluoronicotinamide], the IC50 was below 0.01 µM.
Turning to `COCCNc1nn(C)c2ccc(Nc3nc(N[C@H](C4CC4)[C@H](C)N)c(F)cc3C(N)=O)cc12` [Example 2-464, 6-(((1R,2S)-2-amino-1-cyclopropylpropyl)amino)-5-fluoro-2-((3-((2-methoxyethyl)amino)-1-methyl-1H-indazol-5-yl)amino)nicotinamide], the IC50 was in the range of 0.01 to 0.05 µM.
Next, `COc1ccc([C@@H](Nc2nc(Nc3cnc(OC)c(-n4ccnn4)c3)c(C(N)=O)cc2F)[C@H](C)N)cc1` [Example 2-339, 6-(((1R,2S)-2-amino-1-(4-methoxyphenyl)propyl)amino)-5-fluoro-2-((6-methoxy-5-(1H-1,2,3-triazol-1-yl)pyridin-3-yl)amino)nicotinamide]: 0.05 to 0.1 µM; `Cc1ncc(Nc2nc(N[C@@H]3CC[C@@H](OCc4ccccc4)C[C@@H]3N)c(F)cc2C(N)=O)cc1-n1nccn1` (racemic) [Example 2-528, Mixture of 6-((2-amino-4-(benzyloxy)cyclohexyl)amino)-5-fluoro-2-((6-methyl-5-(2H-1,2,3-triazol-2-yl)pyridin-3-yl)amino)nicotinamide (1R,2S,4R), (1S,2R,4S)]: 0.05 to 0.1 µM.
`Cn1nc(N2CCCC2=O)c2cc(Nc3nc(N[C@@H]4CCCC[C@@H]4N)c(F)cc3C(N)=O)ccc21` [Example 2-431, 6-(((1R,2S)-2-aminocyclohexyl)amino)-5-fluoro-2-((1-methyl-3-(2-oxopyrrolidin-1-yl)-1H-indazol-5-yl)amino)nicotinamide]: the IC50 lay in the range of 0.01 to 0.05 µM.
`COCCOc1ncc(Nc2nc(N[C@H](C3CCC3)[C@H](C)N)c(F)cc2C(N)=O)cc1-n1nccn1` [Example 2-165, 6-(((1R,2S)-2-amino-1-cyclobutylpropyl)amino)-5-fluoro-2-((6-(2-methoxyethoxy)-5-(2H-1,2,3-triazol-2-yl)pyridin-3-yl)amino)nicotinamide]: the IC50 was 0.01 to 0.05 µM.
Next, `Cc1nn(-c2cncc(Nc3nc(N[C@H]4CCCC[C@H]4N)c(F)cc3C(N)=O)c2)nc1C` (stereo in doubt) [Example 2-533, 6-(((1S,2R)-2-aminocyclohexyl)amino)-2-((5-(4,5-dimethyl-2H-1,2,3-triazol-2-yl)pyridin-3-yl)amino)-5-fluoronicotinamide]: 0.05 to 0.1 µM; `Cc1ncc(Nc2nc(N[C@H](c3cccc(F)c3)[C@H](C)N)c(F)cc2C(N)=O)cc1-n1nccn1` [Example 2-412, 6-(((1R,2S)-2-amino-1-(3-fluorophenyl)propyl)amino)-5-fluoro-2-((6-methyl-5-(2H-1,2,3-triazol-2-yl)pyridin-3-yl)amino)nicotinamide]: 0.01 to 0.05 µM.
Next, `NC(=O)c1cc(F)c(N[C@@H]2CCCC[C@@H]2N)nc1Nc1ccc(F)c(F)c1` [Example 2-447, 6-(((1R,2S)-2-aminocyclohexyl)amino)-2-((3,4-difluorophenyl)amino)-5-fluoronicotinamide]: below 0.01 µM; `COCCn1nc(N(C)C)c2cc(Nc3nc(N[C@H](C4CC4)[C@H](C)N)c(F)cc3C(N)=O)ccc21` [Example 2-504]: 0.01 to 0.05 µM; `C[C@H](N)[C@H](Nc1nc(Nc2ccc3c(c2)c(OC(F)F)nn3C)c(C(N)=O)cc1F)C1CC1` [Example 2-171, 6-(((1R,2S)-2-amino-1-cyclopropylpropyl)amino)-2-((3-(difluoromethoxy)-1-methyl-1H-indazol-5-yl)amino)-5-fluoronicotinamide]: below 0.01 µM.
With `COCCn1nc(N(C)C)c2cc(Nc3nc(N[C@@H]4CCOC[C@@H]4N)c(F)cc3C(N)=O)ccc21` [Example 2-501, 6-(((3R,4R)-3-aminotetrahydro-2H-pyran-4-yl)amino)-2-((3-(dimethylamino)-1-(2-methoxyethyl)-1H-indazol-5-yl)amino)-5-fluoronicotinamide] the figure was 0.01 to 0.05 µM; with `C[C@H](N)[C@H](Nc1nc(Nc2cnc(N3CCOCC3)c(F)c2)c(C(N)=O)cc1F)c1ccccc1F` [Example 2-513, 6-(((1R,2S)-2-amino-1-(2-fluorophenyl)propyl)amino)-5-fluoro-2-((5-fluoro-6-morpholinopyridin-3-yl)amino)nicotinamide], 0.01 to 0.05 µM.
